# Measured values reported in US20110034703A1, “CRYSTAL FORMS OF N-[2-(DIETHYLAMINO)ETHYL]-5-[(5-FLUORO-1,2-DIHYDRO-2-OXO-3H-INDOL-3-YLIDENE)METHYL]-2,4-DIMETHYL-1H-PYRROLE-3-CARBOXAMIDE AND METHODS FOR THEIR PREPARATION” (ratiopharm GmbH, priority 2008, published 2011).
# “Also recorded” adds a separate entry of the source.
# Assay: Dynamic moisture sorption gravimetry (DMSG), hygroscopicity
# Format: physicochemical
# Settings: for hygroscopicity (in words): DMSG data; for moisture sorption referred to the weight of the sample: DMSG, change in RH of 5% per hour
# Procedure: DMSG was performed using an SPS11-100n instrument (Projekt Messtechnik) at a constant temperature of 25° C. and a change in RH of 5% per hour including isohumid conditions for 5 hours at 0% RH and for 2 hours at 50% RH.
Compound,hygroscopicity (in words),hygroscopicity (in words) (listed as polymorphic form III),"weight gain under DMSG (even at a relative humidity of 95%, 25° C.)",hygroscopicity (in words) (listed as polymorph I),hygroscopicity (in words) (listed as polymorphic form I),moisture sorption referred to the weight of the sample (25° C.),hygroscopicity (in words) (listed as polymorphic form II),"moisture sorption referred to the weight of the sample (25° C., listed as polymorphic form II)"
"CCN(CC)CCNC(=O)c1c(C)[nH]c(/C=C2\C(=O)Nc3ccc(F)cc32)c1C [Polymorph III, N-[2-(diethylamino)ethyl]-5-[(5-fluoro-1,2-dihydro-2-oxo-3H-indol-3-ylidene)methyl]-2,4-dimethyl-1H-pyrrole-3-carboxamide]",very low hygroscopicity; also recorded: not hygroscopic at all,not hygroscopic,does not gain weight,–,–,–,–,–
"CCN(CC)CCNC(=O)c1c(C)[nH]c(/C=C2\C(=O)Nc3ccc(F)cc32)c1C [Polymorph I, N-[2-(diethylamino)ethyl]-5-[(5-fluoro-1,2-dihydro-2-oxo-3H-indol-3-ylidene)methyl]-2,4-dimethyl-1H-pyrrole-3-carboxamide]",low hygroscopicity; also recorded: only very slightly hygroscopic,–,–,only slightly hygroscopic,very low hygroscopicity,about 1%,–,–
"CCN(CC)CCNC(=O)c1c(C)[nH]c(/C=C2\C(=O)Nc3ccc(F)cc32)c1C [Polymorph II, N-[2-(diethylamino)ethyl]-5-[(5-fluoro-1,2-dihydro-2-oxo-3H-indol-3-ylidene)methyl]-2,4-dimethyl-1H-pyrrole-3-carboxamide]",clearly hygroscopic,–,–,–,–,–,slightly more hygroscopic; also recorded: some hygroscopicity,more than 6%
